Source: patent US10435399B2, “HDAC6 inhibitory heterocyclic compound” (TAKEDA PHARMACEUTICAL COMPANY LIMITED, priority 2017, dated 2019)
One block for each compound: values may come before it.

Columns and labels:
[1] = biological target: T1, HDAC6 enzyme (Homo sapiens, UniProt Q9UBN7); assay: HDAC6 enzyme inhibitory activity (HDAC-Glo I/II Assay kit); assay type: biochemical; conditions: 10 μM, wells without enzyme = 100% inhibition; for inhibition at 10 µM: read-out: HDAC6 inhibitory rate (%) (10 μM)
T1 construct: transducing full length HDAC6 gene into Sf-9 insect cells; GST; purchased SignalChem; host or cells: Sf-9 insect cells
T1 sequence (Q9UBN7 1-1215): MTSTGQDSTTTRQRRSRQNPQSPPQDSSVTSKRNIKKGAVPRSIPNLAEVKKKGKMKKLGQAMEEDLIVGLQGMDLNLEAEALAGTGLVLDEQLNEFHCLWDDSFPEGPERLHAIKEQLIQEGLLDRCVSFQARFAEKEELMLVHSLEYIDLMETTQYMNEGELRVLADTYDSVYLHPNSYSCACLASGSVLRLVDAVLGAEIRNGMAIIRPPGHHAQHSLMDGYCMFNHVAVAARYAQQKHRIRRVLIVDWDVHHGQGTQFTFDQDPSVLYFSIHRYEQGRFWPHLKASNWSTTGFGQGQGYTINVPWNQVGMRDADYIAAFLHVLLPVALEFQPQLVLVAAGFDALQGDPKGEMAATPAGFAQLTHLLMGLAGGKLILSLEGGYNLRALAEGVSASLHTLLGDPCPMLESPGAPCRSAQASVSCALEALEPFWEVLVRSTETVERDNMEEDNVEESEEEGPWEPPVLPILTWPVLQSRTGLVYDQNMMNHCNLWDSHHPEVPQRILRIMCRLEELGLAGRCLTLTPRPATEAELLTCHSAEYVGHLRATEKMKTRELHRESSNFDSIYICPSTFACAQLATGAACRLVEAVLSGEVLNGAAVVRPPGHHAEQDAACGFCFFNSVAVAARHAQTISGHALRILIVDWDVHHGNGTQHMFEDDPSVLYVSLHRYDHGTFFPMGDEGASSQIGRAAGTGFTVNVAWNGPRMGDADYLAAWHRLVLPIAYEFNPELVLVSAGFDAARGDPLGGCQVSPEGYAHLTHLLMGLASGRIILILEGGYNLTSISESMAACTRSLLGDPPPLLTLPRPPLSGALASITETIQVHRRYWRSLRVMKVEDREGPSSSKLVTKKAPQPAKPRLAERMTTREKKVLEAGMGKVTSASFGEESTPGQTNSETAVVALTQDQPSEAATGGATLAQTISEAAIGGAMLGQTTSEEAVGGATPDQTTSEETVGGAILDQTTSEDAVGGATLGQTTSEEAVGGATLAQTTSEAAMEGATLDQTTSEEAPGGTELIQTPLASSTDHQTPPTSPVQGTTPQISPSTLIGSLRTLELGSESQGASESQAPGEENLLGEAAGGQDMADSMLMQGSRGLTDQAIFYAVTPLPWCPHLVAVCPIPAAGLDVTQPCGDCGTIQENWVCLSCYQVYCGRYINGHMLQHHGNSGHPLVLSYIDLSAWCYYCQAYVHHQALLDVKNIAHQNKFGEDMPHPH
Procedure, shortened: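 Full-length human HDAC6 (GST-purified, Sf-9 expressed) preincubated with compound 60 min at room temperature in Tris-HCl pH 7.5 buffer with MgCl2, KCl, NaCl, glutathione, Tween-20. HDAC-Glo I/II substrate-developer then added, 20 min room temperature, luminescence read. Inhibition relative to no-enzyme wells as 100%.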

[2] = test system: TK6 cells; assay: γH2AX assay using TK6 cells; assay type: cell-based, Human; conditions: 4 hr treatment, up to 100 μM
Method: γH2AX Assay Using TK6 Cells
Human lymphoblasts-derived TK6 cells were treated with the compounds of Examples 489, 512 or 519 at 0, 10, 30 or 100 μmol/L (final concentration) for 4 hr, and the presence or absence of DNA damage was evaluated by measuring phosphorylation of histone H2AX (γH2AX) as a marker. In addition, cytotoxicity after 24-hr treatment was also evaluated.
Exponentially growing TK6 cells were prepared at the cell density of 4×10^5 cells/mL in a culture medium, and was added to a 96-well plate by 100 μL/well. A test compound solution (2% DMSO) prepared using a culture solution, having twice the concentration on the above-mentioned final concentrations, was added thereto by 100 μL/well. This plate was incubated at 37° C., the cell suspension after 4 hr was sampled, and stained using In Vitro MultiFlow™ DNA Damage Kit (Litron), and H2AX phosphorylation level in each nucleus was measured using a flow cytometer and average value was calculated. The H2AX phosphorylation level in the concurrent vehicle control group was also measured and average value was calculated. The rate of change in the H2AX phosphorylation level in the treatment groups relative to that in the control group was calculated, and Dunnett test (significance level: two-tailed 1%) was performed. In addition, the cell suspension after 24 hr treatment was sampled, and the nucleus number was measured, and variation in the nucleus number in the treatment groups relative to that in the concurrent vehicle control group was used as an indicator of cytotoxicity. […] Therefore, the potential of the compounds for DNA strand breakage was judged to be negative under this test condition.

[3] = test system: bone-marrow cells; assay: Micronucleus test in rats (bone-marrow cells); assay type: in vivo, rats (Crl:CD(SD))
Method: Combination Assay of Micronucleus Test and Comet Assay in Rats […] Bone-marrow smear for micronucleus analysis was prepared as follows. Femur was cut at both ends, and washed with fetal bovine serum (FBS) in a centrifuging tube, and the obtained bone-marrow fluid was centrifuged for 5 min at room temperature. The supernatant was removed, and the cell sediment was suspended in the remaining small amount of the supernatant. A part of the suspension was dropped on a glass slide, and a cover glass was placed thereon to give a bone-marrow smear. The smear was dried well, and fixed with methanol for 5 min. The bone-marrow smear of negative control, that of treatment groups as well as the previously prepared bone-marrow smear of positive control group were encoded, and observed by the blind method. An acridine orange solution (40 μg/mL) was dropped (several drops) to the smear just before observation, and a cover glass was placed thereon. […] In addition, as an index of growth inhibitory effect on bone-marrow cell, total of 500 erythrocytes [immature erythrocytes+mature erythrocytes (ME)] per individual were observed, and immature erythrocyte rate (IE %) relative to the total number of erythrocytes was calculated.

[4] = test system: liver and glandular stomach cells; assay: Comet assay in rats (liver and glandular stomach); assay type: in vivo, rats (Crl:CD(SD)); conditions: 3 days, test article = compound of Example 489
Method: Combination Assay of Micronucleus Test and Comet Assay in Rats
The compound of Example 489 at doses of 1000 and 2000 mg/kg was orally administered to 8 to 9-week-old rats (Crl:CD(SD), five/group) once daily for 3 days, and micronucleus induction was evaluated in bone-marrow cells, and DNA damage was evaluated by DNA fragmentation of cell nucleus in the liver and glandular stomach.
Sample for comet assay was obtained from liver and glandular stomach by the following procedures. A part of left lateral lobe of liver was washed well with a cooled mincing buffer solution (Hanks' balanced salt solution containing 20 mmol/L EDTA and 10 vol % DMSO, pH7.5), and minced finely with dissecting scissors. This sample was kept on ice for 15 to 30 seconds, the precipitated large cell mass was removed, and the obtained cell suspension was kept on ice. Glandular stomach was added to a cooled mincing buffer solution, and kept on ice for 15 to 30 min. Then, the surface epithelium was removed by scraping gently twice, the stomach mucosa was washed well with a cooled mincing buffer solution, and the mucosa surface was taken out by scraping carefully four times or five times. This was kept on ice for 15 to 30 seconds, the precipitated large cell mass was removed, and the obtained cell suspension was kept on ice.
The liver and glandular stomach cell suspensions prepared by the above-mentioned procedures were added to 0.5 w/v % low-melting agarose so that the concentration became 10 vol % or less, 40 μL of the suspension was dropped to MAS-coated slide (Matsunami Glass Ind., Ltd.), and fixed to give a slide sample. The slide sample was immersed in a cooled cell lysate [an aqueous solution containing 2.5 mol/L sodium chloride, 100 mmol/L EDTA, 10 mmol/L tris(hydroxymethyl)aminomethane, 10 vol % DMSO and 1 vol % Triton X-100, pH 10.0], and kept overnight under light shielding in a refrigerator (2 to 8° C.).
The slide sample was washed with ultrapure water, set at random into an electrophoresis apparatus filled with an alkali buffer solution (an aqueous solution containing 0.3 mol/L sodium hydroxide and 1 mmol/L EDTA, pH >13) for electrophoresis. After confirming that the sample was completely immersed, the sample was left for 20 min to unwind the strands. Next, electrophorese was performed at a constant voltage of 0.7 to 1 V/cm (current is set about 0.30 A) for 20 min (the electrophoresis apparatus was kept on ice so that the alkali buffer solution for electrophoresis was kept at a constant temperature of 10° C. or below, during from the dissociation of the strands to electrophoresis). After electrophoresis, the slide sample was immersed in a neutralizing solution [0.4 mol/L aqueous tris(hydroxymethyl)aminomethane solution, pH 7.5] for 5 min or longer. Then, the slide sample was immersed in ethanol for 5 min or longer, and air-dried. […] The slide samples for negative control, test compound and positive control groups were encoded, and analyzed by the blind method. In each individual animal, 150 of suitable cells were selected for observation using a biological microscope with fluorescence attachment at 200-fold final magnification, and analyzed by image analysis software (Comet Assay IV, Perceptive Instruments Ltd.). The degree of the DNA damage was evaluated by % tail intensity calculated automatically from image analysis software. The median of the % tail intensity was calculated in each slide sample, and the average of the median was calculated in each individual. […]

Compound: CC(F)(F)C(=O)N[C@H]1[C@H](N2Cc3ncc(-c4nnc(C(F)F)o4)cc3C2=O)CCCC1(F)F [Example 598, N-((1S,6R)-6-(3-(5-(difluoromethyl)-1,3,4-oxadiazol-2-yl)-5-oxo-5,7-dihydro-6H-pyrrolo[3,4-b]pyridin-6-yl)-2,2-difluorocyclohexyl)-2,2-difluoropropanamide]
inhibition at 10 µM [1]: 100% | histone H2AX phosphorylation (γH2AX) resulted from DNA strand breakage [2]: did not induce histone H2AX phosphorylation | potential for DNA strand breakage (judgement) [2]: negative

Compound: O=P1(N(CCCl)CCCl)NCCCO1 (stereo not shown) [cyclophosphamide]
micronucleated immature erythrocytes incidences (MNIE %), mean ± SD ([3]; rat bone marrow, positive control 20 mg/kg/day): ↑2.77 ± 0.88 %

Compound: CC[C@@]1(O)C(=O)OCc2c1cc1n(c2=O)Cc2cc3cc4c(cc3nc2-1)OCO4 [test article]
% tail DNA, mean ± SD ([4]; rat liver, 1000 mg/kg/day oral): 0.08 ± 0.03% | % tail DNA, mean ± SD ([4]; rat liver, 2000 mg/kg/day oral): 0.11 ± 0.04% | % tail DNA, mean ± SD ([4]; rat stomach, 1000 mg/kg/day oral): 0.59 ± 0.22% | % tail DNA, mean ± SD ([4]; rat stomach, 2000 mg/kg/day oral): 0.48 ± 0.21% | micronucleated immature erythrocytes incidences (MNIE %), mean ± SD ([3]; rat, in vivo, po, 1000 mg/kg/day): 0.10 ± 0.04% | micronucleated immature erythrocytes incidences (MNIE %), mean ± SD ([3]; rat, in vivo, po, 2000 mg/kg/day): 0.10 ± 0.03%

More lines, now with the values ahead:

inhibition at 10 µM [1]: 99%
Compound: O=C1c2cc(-c3nnc(C(F)F)o3)cnc2CN1[C@@H]1COCC[C@H]1Oc1c(F)cccc1F [Example 659, 1,5-anhydro-2,4-dideoxy-2-{3-[5-(difluoromethyl)-1,3,4-oxadiazol-2-yl]-5-oxo-5,7-dihydro-6H-pyrrolo[3,4-b]pyridin-6-yl}-3-O-(2,6-difluorophenyl)-threo-pentitol (optical isomer)]

HDAC6 inhibitory rate (%) (10 μM) [1]: 100%
Compound: O=C1c2cc(-c3nnc(C(F)F)o3)cnc2CN1[C@@H]1COCC[C@H]1Oc1c(F)cccc1F [Example 660, 1,5-anhydro-2,4-dideoxy-2-{3-[5-(difluoromethyl)-1,3,4-oxadiazol-2-yl]-5-oxo-5,7-dihydro-6H-pyrrolo[3,4-b]pyridin-6-yl}-3-O-(2,6-difluorophenyl)-threo-pentitol (optical isomer)]

inhibition at 10 µM [1]: 99%
Compound: O=C1c2cc(-c3nnc(C(F)F)o3)cnc2CN1[C@@H]1CCCC[C@@H]1NC(=O)C(F)(F)C(F)(F)F [Example 661, N-[(1S,2R)-2-{3-[5-(difluoromethyl)-1,3,4-oxadiazol-2-yl]-5-oxo-5,7-dihydro-6H-pyrrolo[3,4-b]pyridin-6-yl}cyclohexyl]-2,2,3,3,3-pentafluoropropanamide]
